In US20090325894A1 (priority 2007, published 2009):
Where two headings read alike, the source gives them in different places.

Legend:
LoVo cells = test: Cell growth inhibition assay (MTS assay), LoVo cells; format: cell-based, Human; conditions: 48 hours, RPMI1640-SIT serum-free medium, read-out: Half maximal inhibitory concentration (IC50) LoVo cells
Procedure: (§1) Cell Growth Inhibition Assay (MTS Assay)
(§2) 1. Cell Strain and Reagents
LoVo: Human colorectal adenocarcinoma cell line (ATCC catalog # CCL-229);
(§3) SIT solution (SIGMA), RPMI 1640 culture solution, Phosphate buffer, Dimethyl sulfoxide (DMSO), MTS solution (Promega), 96-well cell culture plate;
(§4) Anti-tumor compounds: synthesized by Tianjin Hemay Bio-tech Co., Ltd.;
(§5) Positive control drugs: doxorubicin (Zhejiang Hisun Pharmaceutical Co., Ltd).
(§6) The above-mentioned cells were cultured for several days (RPMI 1640, 10% of bovine serum), collected and suspended in RPMI1640-SIT serum-free medium, placed into a 96-well cell culture plate with each well containing about 20,000 cells/100 μL. The cells were cultured overnight at 5% CO2 and 37° C. The next day, representative antitumor compounds (between 3 and 10 mM) were dissolved in dimethyl sulphoxide (DMSO) to obtain a mother solution. Doxorubicin was used as positive control, DMSO was used as negative control.
(§7) The mother solution was diluted and added to the 96 well cell culture plate, culture for 48 hours at 5% CO2 and 37° C. Subsequently, 20 μL of MTS solution was added to each well of the 96 well cell culture plate and cultured for another 2 to 4 hours at 5% CO2 and 37° C. Absorbance was read at 490 nm wavelength, and converted into cell survival rate.
(§8) Calculation of Percent Inhibition:
(§9) %inhibition=100−[reading of absorbance(compound)/reading of absorbance(blank)]×100
(§10) For each concentration, there two measurements were taken and the average value was recorded. The half maximal inhibitory concentration (IC50) of cell growth was calculated by cell growth inhibition curve.

SW620 cells = test: Cell growth inhibition assay (MTS assay), SW620 cells; format: cell-based, Human; conditions: RPMI1640-SIT serum-free medium, read-out: Half maximal inhibitory concentration (IC50) SW620 cells
Procedure: as §1, §2
SW620: Human colorectal adenocarcinoma cell line;
as §3, §4, §5, §6, §7, §8, §9, §10

HeLa cells = test: Cell growth inhibition assay (MTS assay), HeLa cells; format: cell-based, Human; conditions: 48 hours, RPMI1640-SIT serum-free medium, read-out: Half maximal inhibitory concentration (IC50) HeLa cells
Procedure: as §1, §2
HeLa: Human adenocarcinoma cell line (ATCC catalog # CCL-2);
as §3, §4, §5, §6, §7, §8, §9, §10

Solubility in water = format: physicochemical

Compound: Oleoyl-L-Alanyl-L-Vayl-Doxorubicin maleate [Example 98]
- IC50 (LoVo cells): 30 µM

Compound: COc1cccc2c1C(=O)c1c(O)c3c(c(O)c1C2=O)C[C@@](O)(C(=O)CO)C[C@@H]3O[C@H]1C[C@H](N)[C@H](O)[C@H](C)O1 [Doxorubicin, doxorubicin, reference compound]
- IC50 (LoVo cells; Homo sapiens, LoVo): 2.6 µM
- IC50 (SW620 cells; Homo sapiens, SW-620, 48 hours): 650 nM
- IC50 (HeLa cells; Homo sapiens, HeLa): 0.3 µM

Compound: Linoleic acyl-L-Alanyl-L-Valyl-Doxorubicin bissuccinate [Example 80]
- IC50 (LoVo cells): 20 µM
- IC50 (HeLa cells): > 100 µM

Compound: 4-(2-(2-oleoylaminoethoxy)ethylamino)-4-oxo-butanoyl-L-Alanyl-L-Valyl-Doxorubicin bissuccinate [Example 77]
- IC50 (LoVo cells): 12 µM
- IC50 (HeLa cells): 75 µM

Compound: Oleoyl-L-Alanyl-L-Valyl-Epirubicin bissuccinate [Example 75]
- IC50 (LoVo cells): 0.8 µM

Compound: Bissodium 4-(2-(2-oleoylaminoethoxy)ethylamino)-4-oxo-butanoyl-L-Alanyl-L-Valyl-Doxorubicin bissuccinate [Example 112]
- IC50 (LoVo cells): 2 µM
- IC50 (SW620 cells; 48 hours): 1500 nM
- IC50 (HeLa cells): 3 µM

Compound: Oleoyl-L-Alanyl-L-Valyl-Doxorubicin bissuccinate [Example 70]
- IC50 (LoVo cells): 20 µM
- IC50 (HeLa cells): > 100 µM

Compound: CCCCCCCC/C=C\CCCCCCCC(=O)NCCOCCOCCOCCOCCOCCOCC(=O)N[C@@H](C)C(=O)N[C@H](C(=O)NC1CC(OC2CC(O)(C(=O)COC(=O)CCC(=O)O)Cc3c(O)c4c(c(O)c32)C(=O)c2c(OC)cccc2C4=O)OC(C)C1OC(=O)CCC(=O)O)C(C)C (stereo partly drawn) [Example 86, 2-(2-(2-(2-(2-(2-(2-oleoylamino-ethoxy)ethoxy)ethoxy)ethoxy)ethoxy)ethoxy)actyl-L-Alanyl-L-Valyl-Doxorubicin bissuccinate]
- IC50 (LoVo cells): 2.5 µM

Compound: Linolenic acyl-L-Alanyl-L-Valyl-Doxorubicin bissuccinate [Example 81]
- IC50 (LoVo cells): 18 µM

Compound: 4-(2-oleoylaminoethylamino)-4-oxo-butanoyl-L-Alanyl-L-Valyl-Doxorubicin bissuccinate [Example 79]
- IC50 (LoVo cells): 50 µM

Compound: COc1cccc2c1C(=O)c1c(O)c3c(c(O)c1C2=O)CC(O)(C(=O)CO)CC3OC1CC(NC(=O)[C@@H](NC(=O)[C@H](C)NC(=O)CCC(=O)NCCNC(=O)CCC(=O)NCCNC(=O)OC(C)(C)C)C(C)C)C(O)C(C)O1 (stereo partly drawn) [Example 58, 4-(2-(4-(2-tert-butoxycarbonyl-aminoethylamino)-4-oxo-butanoylamino)ethylamino)-4-oxo-butanoyl-L-Alanyl-L-Valyl-Doxorubicin]
- IC50 (LoVo cells): 75 µM

Compound: Trisodium 4-(2-(2-oleoylaminoethoxy)ethylamino)-4-oxo-butanoyl-L-Alanyl-L-Valyl-Doxorubicin trisuccinate [Example 121]
- IC50 (LoVo cells): 10 µM
- IC50 (HeLa cells): 5 µM

Compound: (4-(2-(2-oleoylaminoethoxy)ethoxy)-4-oxo-butanoyl)-L-Alanyl-L-Valyl-Doxorubicin [Example 69]
- IC50 (LoVo cells): 25 µM
- IC50 (SW620 cells; 48 hours): 12000 nM
- IC50 (HeLa cells): > 100 µM

Compound: Oleoyl-Glycyl-L-Alanyl-L-Valyl-Doxorubicin bissuccinate [Example 74]
- IC50 (LoVo cells): 8 µM

Compound: Bissodium linoleic acyl-L-Alanyl-L-Valyl-Doxorubicin bissuccinate [Example 108]
- IC50 (LoVo cells): 15 µM

Compound: Oleoyl-L-Alanyl-L-Valyl-Daunorubicin bissuccinate [Example 76]
- IC50 (LoVo cells): 10 µM

Compound: DHA acyl-L-Alanyl-L-Valyl-Doxorubicin bissuccinate [Example 82]
- IC50 (LoVo cells): 25 µM

Compound: (4-(2-oleoylaminoethylamino)-4-oxo-butanoyl)-L-Alanyl-L-Valyl-Doxorubicin [Example 57]
- IC50 (LoVo cells): > 100 µM

Compound: Oleoyl-L-Alanyl-L-Valyl-Doxorubicin bis(2-carboxyl-3,4,5,6-tetrafluorobenzoate) [Example 97]
- IC50 (LoVo cells): 10 µM

Compound: Bissodium linolenic acyl-L-Alanyl-L-Valyl-Doxorubicin bissuccinate [Example 109]
- IC50 (LoVo cells): 12 µM

Compound: Bissodium oleoyl-L-Alanyl-L-Valyl-Doxorubicin bis(2-carboxyl-3,4,5,6-tetrafluorobenzoate) [Example 119]
- solubility in water (Solubility in water): more than 1 mg/mL

Compound: 2-(2-(2-(2-(2-(2-(2-oleoylaminoethoxy)ethoxy)ethoxy)ethoxy)ethoxy)ethoxy)acetyl-L-Alanyl-L-Valyl-Doxorubicin [Example 68]
- IC50 (LoVo cells): 30 µM

Compound: (4-(2-(2-oleoylaminoethoxy)ethylamino)-4-oxo-butanoyl)-L-Alanyl-L-Valyl-Doxorubicin [Example 54]
- IC50 (LoVo cells): 25 µM

Compound: CCCCCCCCC=CCCCCCCCC(=O)NCCNC(=O)CCC(=O)NCCNC(=O)CCC(=O)NC(C)C(=O)NC(C(=O)NC1CC(OC2CC(O)(C(=O)CO)Cc3c(O)c4c(c(O)c32)C(=O)c2c(OC)cccc2C4=O)OC(C)C1O)C(C)C [Example 59, 4-(2-(4-(2-oleoylaminoethylamino)-4-oxo-butanoylamino)ethylamino)-4-oxo-butanoyl-L-Alanyl-L-Valyl-Doxorubicin]
- IC50 (LoVo cells): > 100 µM
